Results on 46 compounds are retold here after patent US8916702B2 (priority 2012, dated 2014).

One test deals with HCV pseudoparticles (genotype 1a HCV E1 and E2 envelope, H77C isolate). The test is described as follows: microbe, parasite or virus in culture. The class given is cell-based. The following applies: Hepatitis C virus, Huh-7, 48 h, HCV pseudoparticle infection of Huh7 cells, luciferase 2 days after infection; average of duplicates.
With `O=C(NCC[C@H](NC(=O)c1ccc(Nc2nc(NC3(c4ccc(Cl)cc4)CC3)nc(OCC(F)(F)F)n2)cc1)C(=O)O)C(=O)Nc1cc(F)c(F)cc1F` [Compound 1514], a half-maximal effect (EC50) was put at 0.04 nM. Same read-out and setting: as for `COC(=O)[C@H](CCNC(=O)C(=O)Nc1cccc(-c2ccccc2)c1)NC(=O)c1ccc(Nc2nc(NC3(c4ccc(Cl)cc4)CC3)nc(OCC(F)(F)F)n2)cc1` [Compound 1522], the figure is 0.1 nM. Consider `O=C(NCC[C@H](NC(=O)c1ccc(Nc2nc(NC3(c4ccc(Cl)cc4)CC3)nc(OCC(F)(F)F)n2)cc1)C(=O)O)C(=O)Nc1cccc(-c2ccccc2)c1` [Compound 1523], for which the EC50 is 0.26 nM. On the same count and under the same terms, then `COC(=O)[C@H](CCNC(=O)C(=O)Nc1ccc(-c2ccc(-c3ccccc3)cc2)cc1)NC(=O)c1ccc(Nc2nc(NC3(c4ccc(Cl)cc4)CC3)nc(OCC(F)(F)F)n2)cc1` [Compound 1527], with 0.15 nM; and `CC(C)(CNC(=O)C(=O)NC1CCCCC1)CNC(=O)c1ccc(Nc2nc(NC3(c4ccc(Cl)cc4)CC3)nc(OCC(F)(F)F)n2)cc1` [Compound 1544], with 0.08 nM; and `CC(C)(CNC(=O)C(=O)Nc1nccs1)CNC(=O)c1ccc(Nc2nc(NC3(c4ccc(Cl)cc4)CC3)nc(OCC(F)(F)F)n2)cc1` [Compound 1547], with 0.06 nM.

The same test, now with this note: Hepatitis C virus, Huh-7, 48 h, read-out: Activity (EC50 class), HCV pseudoparticle infection of Huh7 cells, luciferase 2 days after infection; EC50 expressed as class A/B.
Take `COC(=O)[C@H](CCNC(=O)C(=O)Nc1ccc(F)c(F)c1)NC(=O)c1ccc(Nc2nc(NC3(c4ccc(Cl)cc4)CC3)nc(OCC(F)(F)F)n2)cc1` [Compound 1505]: the EC50 was in the range of 0.01 to 10 nM. As for `COC(=O)[C@H](CCNC(=O)C(=O)Nc1cc(F)cc(F)c1)NC(=O)c1ccc(Nc2nc(NC3(c4ccc(Cl)cc4)CC3)nc(OCC(F)(F)F)n2)cc1` [Compound 1506], the EC50 lay within 0.01 to 10 nM. The same measure, in the same setting: as for `O=C(NCC[C@H](NC(=O)c1ccc(Nc2nc(NC3(c4ccc(Cl)cc4)CC3)nc(OCC(F)(F)F)n2)cc1)C(=O)O)C(=O)Nc1cc(F)cc(F)c1` [Compound 1507], the figure is 0.01 to 10 nM. For the compound `COC(=O)[C@H](CCNC(=O)C(=O)Nc1ccc(F)c(F)c1F)NC(=O)c1ccc(Nc2nc(NC3(c4ccc(Cl)cc4)CC3)nc(OCC(F)(F)F)n2)cc1` [Compound 1508], the EC50 fell in the range of 0.01 to 10 nM.

`O=C(NCC[C@H](NC(=O)c1ccc(Nc2nc(NC3(c4ccc(Cl)cc4)CC3)nc(OCC(F)(F)F)n2)cc1)C(=O)O)C(=O)Nc1ccc(F)c(F)c1F` [Compound 1509]: the EC50 was in the range of 0.01 to 10 nM. Consider `COC(=O)[C@H](CCNC(=O)C(=O)Nc1cc(F)c(F)cc1F)NC(=O)c1ccc(Nc2nc(NC3(c4ccc(Cl)cc4)CC3)nc(OCC(F)(F)F)n2)cc1` [Compound 1510], for which the 50% effective concentration (EC50) was in the range of 0.01 to 10 nM. For `O=C(NCC[C@H](NC(=O)c1ccc(Nc2nc(NC3(c4ccc(Cl)cc4)CC3)nc(OCC(F)(F)F)n2)cc1)C(=O)O)C(=O)Nc1cc(F)ccc1F` [Compound 1513], the concentration giving a half-maximal response (EC50) was in the range of 0.01 to 10 nM. Turning to `O=C(NCC[C@H](NC(=O)c1ccc(Nc2nc(NC3(c4ccc(Cl)cc4)CC3)nc(OCC(F)(F)F)n2)cc1)C(=O)O)C(=O)Nc1cc(F)c(F)cc1F` [Compound 1514], the EC50 lay within 0.01 to 10 nM. As for `COC(=O)[C@H](CCNC(=O)C(=O)Nc1ccc(Cl)cc1)NC(=O)c1ccc(Nc2nc(NC3(c4ccc(Cl)cc4)CC3)nc(OCC(F)(F)F)n2)cc1` [Compound 1515], the EC50 lay within 0.01 to 10 nM. The same measure, in the same setting: then `COC(=O)[C@H](CCNC(=O)C(=O)Nc1ccc(-c2ccncc2)cc1)NC(=O)c1ccc(Nc2nc(NC3(c4ccc(Cl)cc4)CC3)nc(OCC(F)(F)F)n2)cc1` [Compound 1517], with 0.01 to 10 nM. The same measure, in the same setting: then `COC(=O)[C@H](CCNC(=O)C(=O)Nc1ccc(-c2ccccc2)c(OC)c1)NC(=O)c1ccc(Nc2nc(NC3(c4ccc(Cl)cc4)CC3)nc(OCC(F)(F)F)n2)cc1` [Compound 1518], with 0.01 to 10 nM; and `COc1cc(NC(=O)C(=O)NCC[C@H](NC(=O)c2ccc(Nc3nc(NC4(c5ccc(Cl)cc5)CC4)nc(OCC(F)(F)F)n3)cc2)C(=O)O)ccc1-c1ccccc1` [Compound 1519], with 0.01 to 10 nM. As for `COC(=O)[C@H](CCNC(=O)C(=O)Nc1ccc(O)nc1)NC(=O)c1ccc(Nc2nc(NC3(c4ccc(Cl)cc4)CC3)nc(OCC(F)(F)F)n2)cc1` [Compound 1520], the EC50 fell in the range of 0.01 to 10 nM. Consider `COC(=O)[C@H](CCNC(=O)C(=O)Nc1cccc(O)c1)NC(=O)c1ccc(Nc2nc(NC3(c4ccc(Cl)cc4)CC3)nc(OCC(F)(F)F)n2)cc1` [Compound 1521], for which the concentration for a half-maximal effect (EC50) is 0.01 to 10 nM. For `COC(=O)[C@H](CCNC(=O)C(=O)Nc1cccc(-c2ccccc2)c1)NC(=O)c1ccc(Nc2nc(NC3(c4ccc(Cl)cc4)CC3)nc(OCC(F)(F)F)n2)cc1` [Compound 1522], the EC50 is 0.01 to 10 nM.

Turning to `O=C(NCC[C@H](NC(=O)c1ccc(Nc2nc(NC3(c4ccc(Cl)cc4)CC3)nc(OCC(F)(F)F)n2)cc1)C(=O)O)C(=O)Nc1cccc(-c2ccccc2)c1` [Compound 1523], the EC50 fell in the range of 0.01 to 10 nM. Turning to `COC(=O)[C@H](CCNC(=O)C(=O)Nc1ccc(-c2ccccc2)cc1)NC(=O)c1ccc(Nc2nc(NC3(c4ccc(Cl)cc4)CC3)nc(OCC(F)(F)F)n2)cc1` [Compound 1524], the EC50 lay in the range of 0.01 to 10 nM.

Take `O=C(NCC[C@H](NC(=O)c1ccc(Nc2nc(NC3(c4ccc(Cl)cc4)CC3)nc(OCC(F)(F)F)n2)cc1)C(=O)O)C(=O)Nc1ccc(-c2ccncc2)cc1` [Compound 1525]: the EC50 is 0.01 to 10 nM. For `COC(=O)[C@H](CCNC(=O)C(=O)Nc1ccc(O)cc1)NC(=O)c1ccc(Nc2nc(NC3(c4ccc(Cl)cc4)CC3)nc(OCC(F)(F)F)n2)cc1` [Compound 1526], the EC50 lay within 0.01 to 10 nM. Same read-out and setting: then `COC(=O)[C@H](CCNC(=O)C(=O)Nc1ccc(-c2ccc(-c3ccccc3)cc2)cc1)NC(=O)c1ccc(Nc2nc(NC3(c4ccc(Cl)cc4)CC3)nc(OCC(F)(F)F)n2)cc1` [Compound 1527], with 0.01 to 10 nM.

Consider `COC(=O)[C@@H](CCNC(=O)C(=O)Nc1ccccc1-c1ccccc1)NC(=O)c1ccc(Nc2nc(NC3(c4ccc(Cl)cc4)CC3)nc(OCC(F)(F)F)n2)cc1` [Compound 1528], for which the concentration for a half-maximal effect (EC50) was 0.01 to 10 nM. Consider `COC(=O)[C@@H](CCNC(=O)C(=O)Nc1ccc(-c2noc(C)n2)cc1)NC(=O)c1ccc(Nc2nc(NC3(c4ccc(Cl)cc4)CC3)nc(OCC(F)(F)F)n2)cc1` [Compound 1529], for which the EC50 lay within 0.01 to 10 nM. Same read-out and setting: then `O=C(NCC[C@@H](NC(=O)c1ccc(Nc2nc(NC3(c4ccc(Cl)cc4)CC3)nc(OCC(F)(F)F)n2)cc1)C(=O)O)C(=O)Nc1cccc(F)c1F` [Compound 1530], with 0.01 to 10 nM; and `O=C(NCC[C@@H](NC(=O)c1ccc(Nc2nc(NC3(c4ccc(Cl)cc4)CC3)nc(OCC(F)(F)F)n2)cc1)C(=O)O)C(=O)Nc1ccccc1-c1ccccc1` [Compound 1532], with 0.01 to 10 nM; and `O=C(NCC[C@@H](NC(=O)c1ccc(Nc2nc(NC3(c4ccc(Cl)cc4)CC3)nc(OCC(F)(F)F)n2)cc1)C(=O)O)C(=O)Nc1ccccc1Cl` [Compound 1534], with 0.01 to 10 nM.

Regarding `COC(=O)[C@@H](CCNC(=O)C(=O)Nc1ccccc1Cl)NC(=O)c1ccc(Nc2nc(NC3(c4ccc(Cl)cc4)CC3)nc(OCC(F)(F)F)n2)cc1` [Compound 1535], the EC50 is 0.01 to 10 nM. Same read-out and setting: then `Cc1ccc(NC(=O)C(=O)NCC(C)(C)CNC(=O)c2ccc(Nc3nc(NC4(c5ccc(Cl)cc5)CC4)nc(OCC(F)(F)F)n3)cc2)cc1` [Compound 1536], with 0.01 to 10 nM; and `CC(C)(CNC(=O)C(=O)Nc1ccccc1)CNC(=O)c1ccc(Nc2nc(NC3(c4ccc(Cl)cc4)CC3)nc(OCC(F)(F)F)n2)cc1` [Compound 1537], with 0.01 to 10 nM. `O=C(NCC[C@@H](NC(=O)c1ccc(Nc2nc(NC3(c4ccc(Cl)cc4)CC3)nc(OCC(F)(F)F)n2)cc1)C(=O)O)C(=O)Nc1ccc(F)c(F)c1F` [Compound 1538]: the EC50 was in the range of 0.01 to 10 nM. As for `CC(C)(CNC(=O)C(=O)Nc1ccc(F)cc1F)CNC(=O)c1ccc(Nc2nc(NC3(c4ccc(Cl)cc4)CC3)nc(OCC(F)(F)F)n2)cc1` [Compound 1539], the EC50 fell in the range of 0.01 to 10 nM. Take `CC(C)(CNC(=O)C(=O)Nc1cc(F)cc(F)c1)CNC(=O)c1ccc(Nc2nc(NC3(c4ccc(Cl)cc4)CC3)nc(OCC(F)(F)F)n2)cc1` [Compound 1540]: the EC50 lay in the range of 0.01 to 10 nM. Take `Cc1ccc(NC(=O)C(=O)NCC(C)(C)CNC(=O)c2ccc(Nc3nc(NC4(c5ccc(Cl)cc5)CC4)nc(OCC(F)(F)F)n3)cc2)cc1Cl` [Compound 1541]: the concentration for a half-maximal effect (EC50) was 0.01 to 10 nM.

As to `CC(C)(CNC(=O)C(=O)Nc1ccc(-c2ccc(C(=O)O)cc2)cc1)CNC(=O)c1ccc(Nc2nc(NC3(c4ccc(Cl)cc4)CC3)nc(OCC(F)(F)F)n2)cc1` [Compound 1542], the EC50 is 0.01 to 10 nM. Still for that read-out and setting: then `CC(C)(CNC(=O)C(=O)Nc1ccc(-c2cccc(C(=O)O)c2)cc1)CNC(=O)c1ccc(Nc2nc(NC3(c4ccc(Cl)cc4)CC3)nc(OCC(F)(F)F)n2)cc1` [Compound 1543], with 0.01 to 10 nM; and `CC(C)(CNC(=O)C(=O)NC1CCCCC1)CNC(=O)c1ccc(Nc2nc(NC3(c4ccc(Cl)cc4)CC3)nc(OCC(F)(F)F)n2)cc1` [Compound 1544], with 0.01 to 10 nM. The same measure, in the same setting: as for `CC(C)(CNC(=O)C(=O)N1CCc2ccccc2C1)CNC(=O)c1ccc(Nc2nc(NC3(c4ccc(Cl)cc4)CC3)nc(OCC(F)(F)F)n2)cc1` [Compound 1545], the figure is 0.01 to 10 nM.

With `CC(C)(CNC(=O)C(=O)Nc1cccc(F)c1)CNC(=O)c1ccc(Nc2nc(NC3(c4ccc(Cl)cc4)CC3)nc(OCC(F)(F)F)n2)cc1` [Compound 1546], the EC50 lay in the range of 0.01 to 10 nM. On the same count and under the same terms, as for `CC(C)(CNC(=O)C(=O)Nc1nccs1)CNC(=O)c1ccc(Nc2nc(NC3(c4ccc(Cl)cc4)CC3)nc(OCC(F)(F)F)n2)cc1` [Compound 1547], the figure is 0.01 to 10 nM; as for `Cc1cc(NC(=O)C(=O)NCC(C)(C)CNC(=O)c2ccc(Nc3nc(NC4(c5ccc(Cl)cc5)CC4)nc(OCC(F)(F)F)n3)cc2)no1` [Compound 1548], 0.01 to 10 nM; as for `CC(C)(CNC(=O)C(=O)NCc1ccc(F)cc1)CNC(=O)c1ccc(Nc2nc(NC3(c4ccc(Cl)cc4)CC3)nc(OCC(F)(F)F)n2)cc1` [Compound 1549], 0.01 to 10 nM. On to `CC(C)(CNC(=O)C(=O)N1CCCCC1)CNC(=O)c1ccc(Nc2nc(NC3(c4ccc(Cl)cc4)CC3)nc(OCC(F)(F)F)n2)cc1` [Compound 1550], for which the EC50 is 0.01 to 10 nM. The same measure, in the same setting: as for `CC(C)CNC(=O)C(=O)NCC(C)(C)CNC(=O)c1ccc(Nc2nc(NC3(c4ccc(Cl)cc4)CC3)nc(OCC(F)(F)F)n2)cc1` [Compound 1551], the figure is 0.01 to 10 nM.

As for `CC(C)(CNC(=O)C(N)=O)CNC(=O)c1ccc(Nc2nc(NC3(c4ccc(Cl)cc4)CC3)nc(OCC(F)(F)F)n2)cc1` [Compound 1552, N^1-(3-(4-((4-((1-(4-chlorophenyl)cyclopropyl)amino)-6-(2,2,2-trifluoroethoxy)-1,3,5-triazin-2-yl)amino)benzamido)-2,2-dimethylpropyl)oxalamide], the EC50 lay within 0.01 to 10 nM. As to `CNC(=O)C(=O)NCC(C)(C)CNC(=O)c1ccc(Nc2nc(NC3(c4ccc(Cl)cc4)CC3)nc(OCC(F)(F)F)n2)cc1` [Compound 1553], the EC50 was in the range of 0.01 to 10 nM.

For the compound `O=C(NCC[C@@H](NC(=O)c1ccc(Nc2nc(NC3(c4ccc(Cl)cc4)CC3)nc(OCC(F)(F)F)n2)cc1)C(=O)O)C(=O)Nc1ccc(Cl)cc1` [Compound 1555], the EC50 fell in the range of 0.01 to 10 nM. `CC(C)(CNC(=O)C(=O)Nc1ccc(F)c(F)c1)CNC(=O)c1ccc(Nc2nc(NC3(c4ccc(Cl)cc4)CC3)nc(OCC(F)(F)F)n2)cc1` [Compound 1556]: the EC50 lay within 0.01 to 10 nM.

One may read the EC50 as the concentration giving half of the maximal effect.
